Assay results published in US12497428B2, “Galactoside inhibitor of galectins” (GALECTO BIOTECH AB, priority 2018, dated 2025).
Converted amounts (≈) assume the structure as drawn.

How the values were obtained:
Aqueous solubility = format: physicochemical
Galectin-1 = Galectin-1 (Homo sapiens, UniProt P09382); assay: Fluorescence anisotropy assay, inhibition of galectin / fluorescein tagged saccharide probe interaction; format: binding
Description: (§1) The affinity of Example 1-28 for galectins were determined by a fluorescence anisotropy assay where the compound was used as an inhibitor of the interaction between galectin and a fluorescein tagged saccharide probe as described Sörme, P., Kahl-Knutsson, B., Huflejt, M., Nilsson, U. J., and Leffler H. (2004) Fluorescence polarization as an analytical tool to evaluate galectin-ligand interactions. Anal. Biochem. 334: 36-47, (Sörme et al., 2004) and Monovalent interactions of Galectin-1 By Salomonsson, Emma; Larumbe, Amaia; Tejler, Johan; Tullberg, Erik; Rydberg, Hanna; Sundin, Anders; Khabut, Areej; Frejd, Torbjorn; Lobsanov, Yuri D.; Rini, James M.; et al, From Biochemistry (2010), 49(44), 9518-9532, (Salomonsson et al., 2010).

Galectin-3 = Galectin-3 (Homo sapiens, UniProt P17931); assay: as above; format: binding
Description: as §1

galectins = details: cited from earlier work

Chain of Galectin-3 (P17931 whole entry): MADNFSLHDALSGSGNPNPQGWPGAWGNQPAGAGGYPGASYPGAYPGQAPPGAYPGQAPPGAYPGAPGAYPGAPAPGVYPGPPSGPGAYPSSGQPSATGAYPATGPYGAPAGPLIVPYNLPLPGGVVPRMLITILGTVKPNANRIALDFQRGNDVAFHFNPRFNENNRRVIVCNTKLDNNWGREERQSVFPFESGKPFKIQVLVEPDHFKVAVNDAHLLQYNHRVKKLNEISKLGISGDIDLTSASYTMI
Chain of Galectin-1 (P09382 whole entry): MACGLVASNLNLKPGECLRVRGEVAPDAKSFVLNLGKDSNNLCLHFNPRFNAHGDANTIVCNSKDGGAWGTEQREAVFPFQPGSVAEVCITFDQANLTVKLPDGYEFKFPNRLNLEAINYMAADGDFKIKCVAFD

SMILES	solubility (Aqueous solubility) [µg/mL]	Kd (Galectin-1) [µM]	Kd (Galectin-3) [µM]	affinity, times lower than lactose (galectins; relative to lactose)	Kd (galectins; all galectins) [µM]
O=C(O)CO[C@@H]1[C@@H](n2cc(-c3cc(F)c(F)c(F)c3)nn2)[C@@H](O)[C@@H](CO)O[C@@H]1Sc1cncc(Br)c1 [Example 8, 5-Bromopyridin-3-yl 2-O-carboxymethyl-3-deoxy-3-[4-(3,4,5-trifluorophenyl)-1H-1,2,3-triazol-1-yl]-1-thio-α-D-galactopyranoside]	1800 (≈ 3.04 mM)	1.8	0.007		
CS(=O)(=O)NC(=O)COC1C(n2cc(-c3cc(F)c(Cl)c(F)c3)nn2)[C@@H](O)C(CO)O[C@@H]1Sc1ccc(Cl)c(Cl)c1 (stereo in doubt) [Example 9, 3,4-Dichlorphenyl 3-[4-(4-chloro-3,5-difluorophenyl)-1H-1,2,3-triazol-1-yl]-3-deoxy-2-O-[2-(methylsulfonamido)-2-oxoethyl]-1-thio-α-D-galactopyranoside]	2900 (≈ 4.3 mM)	3	0.023		
O=P(O)(O)OCO[C@@H]1[C@@H](n2cc(-c3cc(F)c(F)c(F)c3)nn2)[C@@H](O)[C@@H](CO)O[C@@H]1Sc1cncc(Br)c1 [Example 5, 5-Bromopyridin-3-yl 3-deoxy-3-[4-(3,4,5-trifluorophenyl)-1H-1,2,3-triazol-1-yl]-2-O-[(phosphonooxy)methyl]-1-thio-α-D-galactopyranoside]	> 10000	3.83	0.012		
O=C[C@H](O)[C@@H](O)[C@@H](O)[C@H](O)CO [D-galactose]				50-100 times	
OC[C@H]1O[C@@H](O[C@H]2[C@H](O)[C@@H](O)C(O)O[C@@H]2CO)[C@H](O)[C@@H](O)[C@H]1O (some centres unmarked) [lactose]					500 to 1000
OC[C@H]1O[C@H](Sc2cncc(Br)c2)[C@H](OCc2ncc[nH]2)[C@@H](n2cc(-c3cc(F)c(F)c(F)c3)nn2)[C@H]1O [Example 15, 5-Bromopyridin-3-yl 3-deoxy-3-[4-(3,4,5-trifluorophenyl)-1H-1,2,3-triazol-1-yl]-2-O-[(1H-imidazol-2-yl)methyl]-1-thio-α-D-galactopyranoside]		9.5	0.007		
CN(C)C(=O)c1ccc(Cl)cc1S[C@H]1OC(CO)[C@H](O)C(n2cc(-c3cc(F)c(F)c(F)c3)nn2)C1OCc1cscn1 (stereo partly drawn) [Example 24, 4-Chloro-N,N-dimethyl-benzamide-2-yl 3-deoxy-3-[4-(3,4,5-trifluorophenyl)-1H-1,2,3-triazol-1-yl]-2-O-[(thiazol-4-yl)methyl]-1-thio-α-D-galactopyranoside]		3.7	0.014		
CN(C)C(=O)c1ccc(Cl)cc1S[C@H]1OC(CO)[C@H](O)C(n2cc(-c3cc(F)c(F)c(F)c3)nn2)C1OCc1nnn[nH]1 (stereo partly drawn) [Example 25, 4-Chloro-N,N-dimethyl-benzamide-2-yl 3-deoxy-3-[4-(3,4,5-trifluorophenyl)-1H-1,2,3-triazol-1-yl]-2-O-[(1H-tetrazol-5-yl)methyl]-1-thio-α-D-galactopyranoside]		1.2	0.004		
O=C(O)CCCO[C@@H]1[C@@H](n2cc(-c3cc(F)c(F)c(F)c3)nn2)[C@@H](O)[C@@H](CO)O[C@@H]1Sc1cncc(Br)c1 [Example 26, 5-Bromopyridin-3-yl 2-O-carboxypropyl-3-deoxy-3-[4-(3,4,5-trifluorophenyl)-1H-1,2,3-triazol-1-yl]-1-thio-α-D-galactopyranoside]		1.5	0.01		
OC[C@H]1O[C@H](Sc2cncc(Br)c2)[C@H](OCc2cscn2)[C@@H](n2cc(-c3cc(F)c(F)c(F)c3)nn2)[C@H]1O [Example 21, 5-Bromopyridin-3-yl 3-deoxy-3-[4-(3,4,5-trifluorophenyl)-1H-1,2,3-triazol-1-yl]-2-O-[(thiazol-4-yl)methyl]-1-thio-α-D-galactopyranoside]		8.6	0.018		
O=C(O)CO[C@@H]1[C@@H](n2cc(-c3cc(F)c(Cl)c(F)c3)nn2)[C@@H](O)[C@@H](CO)O[C@@H]1Sc1ccc(Cl)c(Cl)c1 [Example 7, 3,4-Dichlorphenyl 2-O-carboxymethyl-3-[4-(4-chloro-3,5-difluorophenyl)-1H-1,2,3-triazol-1-yl]-3-deoxy-1-thio-α-D-galactopyranoside]	2000 (≈ 3.35 mM)	2	0.0085		
OC[C@H]1O[C@H](Sc2cncc(Br)c2)[C@H](OCc2cnco2)[C@@H](n2cc(-c3cc(F)c(F)c(F)c3)nn2)[C@H]1O [Example 18, 5-Bromopyridin-3-yl 3-deoxy-3-[4-(3,4,5-trifluorophenyl)-1H-1,2,3-triazol-1-yl]-2-O-[(oxazol-5-yl)methyl]-1-thio-α-D-galactopyranoside]		14.8	0.13		
OC[C@H]1O[C@H](Sc2cncc(Br)c2)[C@H](OCc2cocn2)[C@@H](n2cc(-c3cc(F)c(F)c(F)c3)nn2)[C@H]1O [Example 10, 5-Bromopyridin-3-yl 3-deoxy-3-[4-(3,4,5-trifluorophenyl)-1H-1,2,3-triazol-1-yl]-2-O-(oxazol-4-ylmethyl)-1-thio-α-D-galactopyranoside]		9.2	0.024		
OC[C@H]1O[C@H](Sc2cncc(Br)c2)[C@H](OCc2ccon2)[C@@H](n2cc(-c3cc(F)c(F)c(F)c3)nn2)[C@H]1O [Example 19, 5-Bromopyridin-3-yl 3-deoxy-3-[4-(3,4,5-trifluorophenyl)-1H-1,2,3-triazol-1-yl]-2-O-[(isoxazol-3-yl)methyl]-1-thio-α-D-galactopyranoside]		2.9	0.032		
O=S(=O)(O)O[C@@H]1[C@@H](n2cc(-c3cc(F)c(F)c(F)c3)nn2)[C@@H](O)[C@@H](CO)O[C@@H]1Sc1cncc(Br)c1 [Example 4, 5-Bromopyridin-3-yl 3-deoxy-3-[4-(3,4,5-trifluorophenyl)-1H-1,2,3-triazol-1-yl]-2-O-sulfo-1-thio-α-D-galactopyranside]		3.15	0.003		
CC(OC1C(n2cc(-c3cc(F)c(F)c(F)c3)nn2)[C@@H](O)C(CO)O[C@@H]1Sc1cncc(Br)c1)C(=O)O (single isomer, unassigned; diastereomer 2) [Example 28]		6.4	0.006		
CC(OC1C(n2cc(-c3cc(F)c(F)c(F)c3)nn2)[C@@H](O)C(CO)O[C@@H]1Sc1cncc(Br)c1)C(=O)O (single isomer, unassigned; diastereomer 1) [Example 27]		6.5	0.015		
OCC1O[C@H](Sc2ccc(Cl)c(Cl)c2)C(OCc2nnn[nH]2)C(n2cc(-c3cc(F)c(Cl)c(F)c3)nn2)[C@H]1O (stereo in doubt) [Example 13, 3,4-Dichlorphenyl 3-[4-(4-chloro-3,5-difluorophenyl)-1H-1,2,3-triazol-1-yl]-3-deoxy-2-O-[(1H-tetrazol-5-yl)methyl]-1-thio-α-D-galactopyranoside]		1.4	0.064		
